Data from patent publication US11098055B2, “Ester ACC inhibitors and uses thereof” (Gilead Apollo, LLC, priority 2015, dated 2021).
Converted amounts (≈) assume the structure as drawn.

Experiments:
hACC2 = hACC2 (Homo sapiens, UniProt O00763); assay: In vitro ACC2 inhibition assay (ADP-Glo), human ACC2; type: biochemical
Method in brief: (§1)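 ADP-Glo luminescent ADP detection with 5 nM ACC2, 20 μM ATP, 20 μM acetyl-CoA, 12 mM NaHCO3, 2 mM DTT, 5% DMSO; compound (30 μM-0.00051 μM, 11 points) preincubated 15 min, reaction 60 min at room temperature. Percent inhibition against DMSO and positive controls; IC50 by four-parameter nonlinear fit.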

fACC2 = fACC2 (UniProt Q00955); assay: In vitro ACC2 inhibition assay (ADP-Glo), fungal ACC2; type: biochemical
Method in brief: as §1

C. albicans ATCC 90028 = assay: Anti-Fungal (Candida) Activity Assay, broth microtiter MIC; type: cell-based; conditions: ATCC90028, 48 h, 3 replicates, MIC read at 48 h
Method in brief: (§2)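 Broth microdilution per CLSI M27-A3 in RPMI 1640 + MOPS, at a final inoculum of 2.5×10^3 CFU/mL. Compound DMSO stocks were diluted in water to a 128 μg/mL working solution. MIC was read visually against the growth control at 48 h.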

[1] = system: C. parapsilosis ATCC 22019; assay: as above; type: cell-based; conditions: Lodderomyces parapsilosis, ATCC22019, 48 h, 3 replicates, MIC read at 48 h
Method in brief: as §2

C. krusei ATCC 6258 = assay: as above; type: cell-based, Candida krusei; conditions: Pichia kudriavzevii, ATCC6258, 48 h, 3 replicates, MIC read at 48 h
Method in brief: as §2

fACC2, sequence (Q00955 whole entry): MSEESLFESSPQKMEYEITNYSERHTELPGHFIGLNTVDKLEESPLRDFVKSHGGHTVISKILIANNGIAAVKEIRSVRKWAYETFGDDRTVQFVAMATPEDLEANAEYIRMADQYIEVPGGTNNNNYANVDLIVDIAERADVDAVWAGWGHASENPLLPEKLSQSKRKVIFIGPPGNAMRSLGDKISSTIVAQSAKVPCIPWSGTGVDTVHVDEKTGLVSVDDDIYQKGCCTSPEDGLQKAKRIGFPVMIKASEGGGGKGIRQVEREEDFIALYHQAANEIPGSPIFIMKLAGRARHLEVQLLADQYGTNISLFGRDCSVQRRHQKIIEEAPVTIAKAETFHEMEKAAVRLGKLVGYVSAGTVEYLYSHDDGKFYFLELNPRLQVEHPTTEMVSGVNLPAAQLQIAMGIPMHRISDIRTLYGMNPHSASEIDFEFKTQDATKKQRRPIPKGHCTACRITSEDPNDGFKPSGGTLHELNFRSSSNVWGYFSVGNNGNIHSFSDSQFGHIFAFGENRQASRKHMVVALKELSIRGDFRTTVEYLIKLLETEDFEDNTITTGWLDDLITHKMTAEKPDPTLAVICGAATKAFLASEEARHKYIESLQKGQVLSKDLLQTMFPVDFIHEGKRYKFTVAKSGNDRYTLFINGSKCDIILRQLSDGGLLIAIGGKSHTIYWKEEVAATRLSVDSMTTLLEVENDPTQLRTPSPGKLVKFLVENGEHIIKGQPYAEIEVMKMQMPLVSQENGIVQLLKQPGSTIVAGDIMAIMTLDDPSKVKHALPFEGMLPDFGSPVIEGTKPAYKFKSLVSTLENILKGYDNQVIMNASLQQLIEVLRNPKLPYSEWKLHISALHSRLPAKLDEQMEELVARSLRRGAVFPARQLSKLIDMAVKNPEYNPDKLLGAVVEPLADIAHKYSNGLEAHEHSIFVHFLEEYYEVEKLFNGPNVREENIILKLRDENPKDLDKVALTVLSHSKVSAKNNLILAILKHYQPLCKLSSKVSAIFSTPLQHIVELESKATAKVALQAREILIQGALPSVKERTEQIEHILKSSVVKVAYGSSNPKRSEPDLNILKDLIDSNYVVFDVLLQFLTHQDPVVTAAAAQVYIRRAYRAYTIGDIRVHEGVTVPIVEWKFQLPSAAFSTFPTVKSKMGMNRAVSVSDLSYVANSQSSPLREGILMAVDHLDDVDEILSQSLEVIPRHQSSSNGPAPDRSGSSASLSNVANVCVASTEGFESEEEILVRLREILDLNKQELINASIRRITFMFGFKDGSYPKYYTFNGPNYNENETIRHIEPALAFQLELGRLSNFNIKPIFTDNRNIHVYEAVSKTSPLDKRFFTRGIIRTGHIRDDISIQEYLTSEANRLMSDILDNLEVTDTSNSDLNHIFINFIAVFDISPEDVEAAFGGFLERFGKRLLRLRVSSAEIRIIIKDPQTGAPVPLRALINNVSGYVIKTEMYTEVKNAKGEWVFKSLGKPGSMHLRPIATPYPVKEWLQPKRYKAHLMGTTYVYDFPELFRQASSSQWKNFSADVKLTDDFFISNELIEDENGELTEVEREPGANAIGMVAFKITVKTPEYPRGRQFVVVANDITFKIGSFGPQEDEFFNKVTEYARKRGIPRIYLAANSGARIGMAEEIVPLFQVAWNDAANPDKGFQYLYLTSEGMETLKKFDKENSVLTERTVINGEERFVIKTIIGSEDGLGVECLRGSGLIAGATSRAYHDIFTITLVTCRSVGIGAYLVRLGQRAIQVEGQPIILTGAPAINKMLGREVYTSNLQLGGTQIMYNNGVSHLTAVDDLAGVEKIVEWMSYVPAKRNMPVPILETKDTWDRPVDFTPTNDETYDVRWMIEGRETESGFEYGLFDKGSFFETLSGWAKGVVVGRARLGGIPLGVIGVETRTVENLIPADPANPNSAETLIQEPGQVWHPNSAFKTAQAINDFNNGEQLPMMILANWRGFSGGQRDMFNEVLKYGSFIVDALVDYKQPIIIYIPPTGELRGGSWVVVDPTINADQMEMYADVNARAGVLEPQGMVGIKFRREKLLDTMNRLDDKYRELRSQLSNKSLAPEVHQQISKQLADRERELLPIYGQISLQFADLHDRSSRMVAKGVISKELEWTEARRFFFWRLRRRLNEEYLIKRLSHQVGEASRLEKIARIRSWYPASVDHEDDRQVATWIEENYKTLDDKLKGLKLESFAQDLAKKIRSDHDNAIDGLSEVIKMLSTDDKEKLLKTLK
hACC2, sequence (O00763 whole entry): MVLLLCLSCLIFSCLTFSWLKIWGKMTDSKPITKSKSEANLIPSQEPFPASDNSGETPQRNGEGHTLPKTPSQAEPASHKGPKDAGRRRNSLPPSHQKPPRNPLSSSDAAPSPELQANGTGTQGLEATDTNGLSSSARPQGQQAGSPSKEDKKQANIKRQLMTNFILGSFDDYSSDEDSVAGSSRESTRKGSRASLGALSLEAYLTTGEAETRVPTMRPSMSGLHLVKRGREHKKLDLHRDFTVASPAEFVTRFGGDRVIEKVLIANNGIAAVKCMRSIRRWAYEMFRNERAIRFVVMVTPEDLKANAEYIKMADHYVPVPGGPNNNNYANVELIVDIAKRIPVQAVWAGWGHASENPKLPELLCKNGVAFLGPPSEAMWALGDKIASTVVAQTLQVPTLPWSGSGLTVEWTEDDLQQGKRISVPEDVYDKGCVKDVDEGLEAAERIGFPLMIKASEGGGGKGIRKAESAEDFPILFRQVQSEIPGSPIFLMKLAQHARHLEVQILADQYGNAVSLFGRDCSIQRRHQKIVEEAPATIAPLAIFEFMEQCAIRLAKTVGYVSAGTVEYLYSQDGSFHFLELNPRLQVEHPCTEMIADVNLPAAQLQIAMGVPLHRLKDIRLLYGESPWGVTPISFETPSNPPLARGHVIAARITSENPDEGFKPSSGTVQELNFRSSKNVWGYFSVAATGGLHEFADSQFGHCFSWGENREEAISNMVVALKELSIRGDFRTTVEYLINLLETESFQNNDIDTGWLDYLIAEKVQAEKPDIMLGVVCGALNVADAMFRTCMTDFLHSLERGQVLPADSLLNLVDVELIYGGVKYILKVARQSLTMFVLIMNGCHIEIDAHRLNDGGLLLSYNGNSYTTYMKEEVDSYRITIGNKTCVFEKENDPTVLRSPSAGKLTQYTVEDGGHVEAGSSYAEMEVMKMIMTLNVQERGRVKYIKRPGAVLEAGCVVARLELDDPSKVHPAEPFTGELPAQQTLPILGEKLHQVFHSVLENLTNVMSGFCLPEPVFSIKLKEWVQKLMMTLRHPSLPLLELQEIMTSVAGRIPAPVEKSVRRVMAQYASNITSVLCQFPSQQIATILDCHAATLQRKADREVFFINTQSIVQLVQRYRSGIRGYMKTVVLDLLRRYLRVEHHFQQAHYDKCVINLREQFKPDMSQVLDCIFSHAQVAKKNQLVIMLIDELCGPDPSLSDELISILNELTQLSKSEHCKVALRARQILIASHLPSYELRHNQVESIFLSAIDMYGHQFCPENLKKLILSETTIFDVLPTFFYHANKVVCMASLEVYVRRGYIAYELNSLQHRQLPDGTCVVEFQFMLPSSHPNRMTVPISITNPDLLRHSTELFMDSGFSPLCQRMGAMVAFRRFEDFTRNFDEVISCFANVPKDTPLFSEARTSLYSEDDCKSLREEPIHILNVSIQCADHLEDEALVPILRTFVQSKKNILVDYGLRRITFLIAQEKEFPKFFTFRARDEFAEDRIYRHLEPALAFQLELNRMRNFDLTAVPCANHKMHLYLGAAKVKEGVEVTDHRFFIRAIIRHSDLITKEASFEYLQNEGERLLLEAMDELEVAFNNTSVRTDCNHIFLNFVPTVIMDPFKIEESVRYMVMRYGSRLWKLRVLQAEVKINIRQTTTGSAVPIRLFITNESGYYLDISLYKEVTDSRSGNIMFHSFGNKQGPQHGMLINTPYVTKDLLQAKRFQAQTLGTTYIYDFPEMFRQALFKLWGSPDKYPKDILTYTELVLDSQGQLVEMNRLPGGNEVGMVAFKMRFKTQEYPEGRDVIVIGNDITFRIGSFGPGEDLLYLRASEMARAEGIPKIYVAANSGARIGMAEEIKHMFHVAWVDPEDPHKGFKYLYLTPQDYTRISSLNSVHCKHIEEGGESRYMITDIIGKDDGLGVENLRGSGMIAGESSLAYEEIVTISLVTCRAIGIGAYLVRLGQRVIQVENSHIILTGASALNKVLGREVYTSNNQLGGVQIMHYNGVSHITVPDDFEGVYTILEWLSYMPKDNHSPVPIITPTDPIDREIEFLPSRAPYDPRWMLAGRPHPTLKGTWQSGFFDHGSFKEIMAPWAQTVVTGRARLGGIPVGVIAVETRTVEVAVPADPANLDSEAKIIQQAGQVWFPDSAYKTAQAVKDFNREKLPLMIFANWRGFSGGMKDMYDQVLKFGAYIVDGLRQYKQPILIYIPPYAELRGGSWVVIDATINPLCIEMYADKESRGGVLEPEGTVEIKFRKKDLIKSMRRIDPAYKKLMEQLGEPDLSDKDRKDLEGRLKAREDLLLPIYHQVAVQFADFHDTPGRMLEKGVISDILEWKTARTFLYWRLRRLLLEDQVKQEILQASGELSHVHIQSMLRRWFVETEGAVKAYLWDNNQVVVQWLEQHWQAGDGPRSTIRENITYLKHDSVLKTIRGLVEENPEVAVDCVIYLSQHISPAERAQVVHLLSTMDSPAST

CCOC(=O)c1sc2c(c1C)c(=O)n(C(C)(C)C(=O)NC(C)C)c(=O)n2C[C@H](OCC(C)(C)C#N)c1cc(F)ccc1OC [Compound I-37, ethyl (R)-1-(2-(2-cyano-2-methylpropoxy)-2-(5-fluoro-2-methoxyphenyl)ethyl)-3-(1-(isopropylamino)-2-methyl-1-oxopropan-2-yl)-5-methyl-2,4-dioxo-1,2,3,4-tetrahydrothieno[2,3-d]pyrimidine-6-carboxylate]
IC50 (hACC2; Table 2b (additional results)): 10 to 40 nM
IC50 (fACC2; Table 2b (additional results)): 0.3 to 3 nM
MIC (C. albicans ATCC 90028; Table 3b (additional results)): 0.25 to 1 mg/L (≈ 0.396 to 1.59 µM)
MIC ([1]; Table 3b (additional results)): 2.1 to 4 mg/L (≈ 3.33 to 6.34 µM)
MIC (C. krusei ATCC 6258; Table 3b (additional results)): 2.1 to 4 mg/L (≈ 3.33 to 6.34 µM)

CCOC(=O)c1sc2c(c1C)c(=O)n(C(C)(C)C(=O)N1CCCC1)c(=O)n2C[C@H](O)c1cc(F)ccc1OC [Compound I-22, (R)-ethyl 1-(2-(5-fluoro-2-methoxyphenyl)-2-hydroxyethyl)-5-methyl-3-(2-methyl-1-oxo-1-(pyrrolidin-1-yl)propan-2-yl)-2,4-dioxo-1,2,3,4-tetrahydrothieno[2,3-d]pyrimidine-6-carboxylate]
IC50 (hACC2; Table 2b (additional results)): 10 to 40 nM
IC50 (fACC2; Table 2b (additional results)): 0.3 to 3 nM
MIC (C. albicans ATCC 90028; Table 3b (additional results)): 2.1 to 4 mg/L (≈ 3.74 to 7.12 µM)
MIC ([1]; Table 3b (additional results)): 0.25 to 1 mg/L (≈ 0.445 to 1.78 µM)
MIC (C. krusei ATCC 6258; Table 3b (additional results)): 2.1 to 4 mg/L (≈ 3.74 to 7.12 µM)

CCOC(=O)c1sc2c(c1C)c(=O)n(C(C)(C)C(N)=O)c(=O)n2C[C@H](OCCC#N)c1cc(F)ccc1OC [Compound I-14, (R)-ethyl 3-(1-amino-2-methyl-1-oxopropan-2-yl)-1-(2-(2-cyanoethoxy)-2-(5-fluoro-2-methoxyphenyl)ethyl)-5-methyl-2,4-dioxo-1,2,3,4-tetrahydro-thieno[2,3-d]pyrimidine-6-carboxylate]
IC50 (hACC2; Table 2a): 3 to 10 nM
IC50 (fACC2; Table 2a): 0.6 to 3 nM
IC50 (fACC2; Table 2b (additional results)): 0.3 to 3 nM
MIC (C. albicans ATCC 90028; Table 3a): > 4.1 mg/L
MIC (C. albicans ATCC 90028; Table 3b (additional results)): 2.1 to 4 mg/L (≈ 3.75 to 7.14 µM)
MIC ([1]; Table 3a): > 4.1 mg/L
MIC ([1]; Table 3b (additional results)): 1.1 to 2 mg/L (≈ 1.96 to 3.57 µM)
MIC (C. krusei ATCC 6258; Table 3a): > 4.1 mg/L
MIC (C. krusei ATCC 6258; Table 3b (additional results)): 2.1 to 4 mg/L (≈ 3.75 to 7.14 µM)

CCOC(=O)c1sc2c(c1C)c(=O)n(C(C)(C)C(N)=O)c(=O)n2C[C@H](OCCOC)c1cc(F)ccc1OC [Compound I-10, (R)-ethyl 3-(1-amino-2-methyl-1-oxopropan-2-yl)-1-(2-(5-fluoro-2-methoxyphenyl)-2-(2-methoxyethoxy)ethyl)-5-methyl-2,4-dioxo-1,2,3,4-tetrahydrothieno[2,3-d]pyrimidine-6-carboxylate]
IC50 (hACC2; Table 2a): ≥ 40 nM
IC50 (hACC2; Table 2b (additional results)): ≥ 40 nM
IC50 (fACC2; Table 2a): 3 to 10 nM
IC50 (fACC2; Table 2b (additional results)): 3 to 10 nM
MIC (C. albicans ATCC 90028; Table 3a): > 4.1 mg/L
MIC (C. albicans ATCC 90028; Table 3b (additional results)): 2.1 to 4 mg/L (≈ 3.71 to 7.07 µM)
MIC ([1]; Table 3a): > 4.1 mg/L
MIC ([1]; Table 3b (additional results)): 2.1 to 4 mg/L (≈ 3.71 to 7.07 µM)
MIC (C. krusei ATCC 6258; Table 3a): > 4.1 mg/L
MIC (C. krusei ATCC 6258; Table 3b (additional results)): 2.1 to 4 mg/L (≈ 3.71 to 7.07 µM)

CCOC(=O)c1sc2c(c1C)c(=O)n(C(C)(C)C(=O)N1CCCC1)c(=O)n2C[C@H](OCCO)c1cc(F)ccc1OC [Compound I-12, (R)-ethyl 1-(2-(5-fluoro-2-methoxyphenyl)-2-(2-hydroxy-ethoxy)ethyl)-5-methyl-3-(2-methyl-1-oxo-1-(pyrrolidin-1-yl)propan-2-yl)-2,4-dioxo-1,2,3,4-tetrahydrothieno[2,3-d]pyrimidine-6-carboxylate]
IC50 (hACC2; Table 2a): 3 to 10 nM
IC50 (hACC2; Table 2b (additional results)): 3 to 10 nM
IC50 (fACC2; Table 2a): 0.6 to 3 nM
IC50 (fACC2; Table 2b (additional results)): 0.3 to 3 nM
MIC (C. albicans ATCC 90028; Table 3a): > 4.1 mg/L
MIC (C. albicans ATCC 90028; Table 3b (additional results)): 2.1 to 4 mg/L (≈ 3.47 to 6.6 µM)
MIC ([1]; Table 3a): > 4.1 mg/L
MIC ([1]; Table 3b (additional results)): 0.25 to 1 mg/L (≈ 0.413 to 1.65 µM)
MIC (C. krusei ATCC 6258; Table 3a): 2.1 to 4 mg/L (≈ 3.47 to 6.6 µM)
MIC (C. krusei ATCC 6258; Table 3b (additional results)): 2.1 to 4 mg/L (≈ 3.47 to 6.6 µM)

CCOC(=O)c1sc2c(c1C)c(=O)n([C@H](C)C(=O)N1CCCC1)c(=O)n2C[C@H](OCCC#N)c1cc(F)ccc1OC [Compound I-24, ethyl 1-((R)-2-(2-cyanoethoxy)-2-(5-fluoro-2-methoxy-phenyl)ethyl)-5-methyl-2,4-dioxo-3-((R)-1-oxo-1-(pyrrolidin-1-yl)propan-2-yl)-1,2,3,4-tetrahydrothieno[2,3-d]pyrimidine-6-carboxylate]
IC50 (hACC2; Table 2b (additional results)): 3 to 10 nM
IC50 (fACC2; Table 2b (additional results)): 0.3 to 3 nM
MIC (C. albicans ATCC 90028; Table 3b (additional results)): 2.1 to 4 mg/L (≈ 3.5 to 6.66 µM)
MIC ([1]; Table 3b (additional results)): 0.25 to 1 mg/L (≈ 0.416 to 1.66 µM)
MIC (C. krusei ATCC 6258; Table 3b (additional results)): 2.1 to 4 mg/L (≈ 3.5 to 6.66 µM)
